Earlier results as cited in US6635288B2, “Composition for suppressing cellular fibrousing and method for preparing an extract from loquat seeds” (Kochi Medical School, priority 2000, dated 2003).

Test system: rats
Conditions: Carter et al., Biochem. Pharmacol. 29, 301 (1980)

## N#C[C@H](O[C@@H]1O[C@H](CO[C@@H]2O[C@H](CO)[C@@H](O)[C@H](O)[C@H]2O)[C@@H](O)[C@H](O)[C@H]1O)c1ccccc1 [amygdalin]
  lethal dose: 600 mg
